Laboratory results reported in PMC5845537 (Frontiers in Pharmacology, 2018).
Like-named read-outs stand apart in the source and are kept apart here.

How the values were obtained:
[1] = tested on: Long-Evans rats; experiment: Attentional set-shifting task (AST) in subchronic PCP-treated rats; format: in vivo, rat
Description: Subchronic PCP treatment: The subPCP administration regimen used in rats was conducted as described in ([Goetghebeur and Dias, 2009]), which is a reliable method for inducing deficits in our hands. Rats in the subPCP experiments received injections of 5 mg/mL PCP or vehicle (saline) s.c. at a 1 mL/kg injection volume twice per day for 7 days. […] The mouse subPCP regimen was conducted as described in [Pedersen et al. (2014)]. Briefly, mice received vehicle or PCP (1.3 mg/mL concentration, 10 mL/kg injection volume) s.c once per day for 14 days followed by a 7-day washout prior to experimentation.
Each test used male Long-Evans rats (Charles River, United States) aged 5–6 weeks when arriving at the research facility.
The attentional set-shifting test (AST) methods used here were adapted from [Goetghebeur and Dias (2009)]. The apparatus used for the AST test was a 44 cm × 64 cm × 30 cm black non-transparent Perspex test box, divided into 3 equal-sized areas (a starting area separated from a choice area subdivided in two). In the choice area, two 11 cm diameter terracotta pots were placed recessed into the box floor (with a 2 cm lip remaining above the floor) and separated by a divider. Odor (oils from The Body Shop®, United Kingdom) and media cues (not previously presented to the rats) were added to the pots.
Beginning on day 3 after the cessation of PCP administration, rats were subjected to a habituation period and trained to dig for a diet reward (half a Honey Loop cereal, Nestlé®) in terracotta pots filled with sawdust. On day 7 of PCP washout, rats were subjected to a single training session in which they were required to discriminate between two pots in order to find the reward. These discriminations were either based on differences in the digging media or the pot’s odor. On day 8 rats were presented with a series of increasingly difficult discriminations: a simple discrimination (SD), a compound discrimination (CD), two intra-dimensional shifts (ID1, ID2), an intra-dimensional shift reversal (ID2R), an extra-dimensional shift (ED) and an extra-dimensional shift reversal (EDR; see Table 1). Rats were required to meet a training criterion before moving on to a new discrimination type (for specifics, see Statistical Analysis, below).
The first trial of each discrimination stage was a discovery trial in which rats were allowed to dig in both pots, and to self-correct if digging in the wrong pot. Rats were only given one discovery trial. The discovery trial was included in the trials to criterion if the rat dug first in the correct pot, but not if the rat self-corrected an incorrect initial dig.
In the acute vortioxetine study, prior to the start of behavioral experiments on Day 8 of washout from PCP treatment, animals were randomly administered either 20% CD (Veh), […], or 64 mg/kg modafinil 30 min p.o. as described above (included as a positive control). Thus, the treatment groups in the acute vortioxetine study were as follows: Veh/Veh, PCP/Veh, PCP/1 mg/kg vortioxetine, PCP/3 mg/kg vortioxetine, PCP/10 mg/kg vortioxetine, or PCP/64 mg/kg modafinil.
Food dosing lasted from the first day of sub-chronic PCP administration and until the last day of the washout period (total of 14 days). After the end of the washout period where behavioral testing started, rats were fed with the same conditioned diet, however, under food restriction (∼11 g of diet per day per rat). In addition, some PCP-treated animals were fed vehicle food, but received acute injections of either 10 mg/kg vortioxetine, or 64 mg/kg modafinil, as described above. The treatment groups for the subchronic vortioxetine administration study were as follows: Veh/Veh, PCP/Veh, PCP/0.22 g/kg vortioxetine food, PCP/1.8 g/kg vortioxetine food, PCP/10 mg/kg vortioxetine 1 h s.c., or PCP/64 mg/kg 30 min p.o.
A third experiment was conducted to examine the effects of acute SERT inhibition or 5-HT3 receptor antagonism on subPCP-induced AST impairments. […]

[2] = tested on: GABAA receptor; experiment: Ex vivo autoradiography, GABAA receptor competition binding ([3H]muscimol vs GABA), medial prefrontal cortex; parameters: species or system rat
Description: Rats used in ex vivo autoradiography (EVA) experiments were randomly assigned to one of four experimental groups characterized by either subchronic saline or PCP (as described above) along with either vehicle or vortioxetine-infused food (1.8 g vortioxetine/kg food weight, as described in the attentional set shifting task). On day 8 of PCP withdrawal, rats were anesthetized using CO2 and killed by decapitation. Brains were quickly and gently removed from the skull, flash frozen on powdered dry ice, and stored at -20°C until sectioning. […] After the tissue mounted on the microscope slides had dried thoroughly (in order to reduce damage from freezing), slides were packed into slide boxes with desiccator pellets, and stored at -20°C for use in EVA saturation binding and competition experiments.
Each of the EVA procedures used in this study are variations on a similar theme. On the day of an experiment, slide-boxes were defrosted under a constant stream of air at room temperature until the boxes were dry and equilibrated with the environment in terms of temperature. […] Prior to any binding experiments, slides were preincubated in the appropriate preincubation buffer and dried at room temperature. Subsequently, tissue was incubated in an assay buffer containing a radioligand appropriate for the receptor of interest, then rinsed in assay buffer, and dried overnight in a vacuum desiccator. […] Finally, slides were opposed to a tritium-sensitive phosphor screen (Fuji imaging plate, GE Healthcare, Pittsburgh, PA, United States) for 5 days before being read in a phosphorimager (Typhoon FLA7000, GE Healthcare).
Ki values for competition experiments were calculated separately for each animal, then aggregated to estimate sample averages and error. Ki values were calculated via non-linear regression, assuming a one-site competition binding, using GraphPad Prism version 6 for Windows (GraphPad software, La Jolla, CA, United States). pKi values were then calculated via the following formula: pKi = -Log10(Ki).

[3] = tested on: 5-HT3 receptor; details: 2014, cited from earlier work
[4] = tested on: rodent 5-HT1A receptors; details: rodent vs human; no reference given; cited from earlier work
[5] = subchronic vortioxetine study, subPCP vs Veh/Veh, p < 0.001
[6] = subchronic high-dose 1.8 g vortioxetine/kg food weight p.o., p < 0.001
[7] = subchronic low-dose 0.18 g vortioxetine/kg food weight p.o., p < 0.001
[8] = subchronic vortioxetine study, acute 10 mg/kg 1 h s.c., p < 0.001

Cl.c1ccc(C2(N3CCCCC3)CCCCC2)cc1 [PCP, 1-(1-phenylcyclohexyl)-piperidine hydrochloride]
trials to reach criterion, EDR discrimination ([1]; acute vortioxetine study, subPCP/vehicle vs vehicle/vehicle): significant increases
trials to reach criterion, ED discrimination ([1]; acute vortioxetine study, subPCP/vehicle vs vehicle/vehicle, PCP 5 mg/kg s.c. twice per day 7 days, 7-day washout, p < 0.01): significant increase
trials to reach criterion, EDR discrimination ([1]; ondansetron/escitalopram study, subPCP vs vehicle/vehicle): failed to induce a significant increase
trials to reach criterion, ED discrimination ([1]; ondansetron/escitalopram study, subPCP vs vehicle/vehicle, p < 0.001): significant increase
trials to reach criterion, ED discrimination [1, 5]: significant increase
trials to reach criterion, EDR discrimination [1, 5]: significant increase
effect of treatment on GABA pKi at the GABAA receptor ([2]; subPCP treatment on its own): did not significantly alter

Cc1ccc(Sc2ccccc2N2CCNCC2)c(C)c1 [vortioxetine]
reversal of subPCP-induced impairment, ED discrimination (trials to criterion) ([1]; acute vortioxetine study, 1 mg/kg 1 h s.c., vs PCP/Veh): significantly reversed
reversal of subPCP-induced impairment, ED discrimination (trials to criterion) ([1]; acute vortioxetine study, 3 mg/kg 1 h s.c., vs PCP/Veh): significantly reversed
reversal of subPCP-induced impairment, ED discrimination (trials to criterion) ([1]; acute vortioxetine study, 10 mg/kg 1 h s.c., vs PCP/Veh): significantly reversed
reversal of subPCP-induced impairment, EDR discrimination (trials to criterion) ([1]; acute vortioxetine study, acute 1, 3, 10 mg/kg 1 h s.c., vs PCP/Veh): neither acute vortioxetine nor modafinil significantly reversed
attenuation of subPCP-induced impairment, ED discrimination [1, 6]: significantly attenuated
attenuation of subPCP-induced impairment, EDR discrimination [1, 6]: significantly attenuated
attenuation of subPCP-induced impairment, ED discrimination [1, 7]: significantly attenuated
attenuation of subPCP-induced impairment, EDR discrimination [1, 7]: significantly attenuated
normalization of AST performance in subPCP-treated rats, ED [1, 8]: significant normalization
normalization of AST performance in subPCP-treated rats, EDR [1, 8]: significant normalization
GABA pKi at the GABAA receptor, PCP/vortioxetine vs vehicle/vortioxetine group ([2]; subchronic vortioxetine combined with subPCP, p < 0.01): significantly lower
increase in the affinity of GABA for the GABAA receptor ([2]; vehicle/vortioxetine vs saline/vehicle group, subchronic 1.8 g vortioxetine/kg food, p < 0.01): approximately 2.5 fold
occupancy at the 5-HT3 receptor ([3]; 1 mg/kg acute dose, ref Leiser et al.): full occupancy
occupancy at 5-HT3 receptors ([3]; 10 mg/kg 1 h s.c., full occupancy, ref Leiser et al.): ≥ 80%
occupancy at 5-HT3 receptors ([3]; subchronic dose used in the mouse OR and object placement tasks, ref Wallace et al., Waller et al., 2017): full occupancy
lesser affinity at rodent 5-HT1A receptors by comparison to humans [4]: approximately 10 fold
